Where two headings read alike, the source gives them in different places.
Key:
[1] = 60 mg ospemifene tablet, single oral dose, low caloric (300 kcal), low-fat meal versus fasted, serum
Method: The composition of the light breakfast (approximately 300 kcal) was as follows: two slices of toast with margarine (5 g, fat content 60%), 6 slices (30 g) of cucumber, 240 ml skimmed (non-fat) milk and 100 ml orange juice. The test meal provided approximately 50, 180 and 70 kcal from protein, carbohydrate and fat, respectively.

[2] = cited from earlier work
[3] = cited from earlier work; remark: listed apart in the source
[4] = Study A: bioavailability of ospemifene after high caloric, high-fat breakfast versus fasted condition; settings: for effect of food intake on bioavailability: 60 mg ospemifene tablet, single oral dose, high caloric (860 kcal), high-fat meal versus fasted, serum
Method: Blood samples for pharmacokinetic assessments were drawn during 72 hours at each study period. A washout period between the two treatments was at least 2 weeks. […] The meal provided approximately 150, 170 and 540 kcal from protein, carbohydrate and fat, respectively.

[5] = Anttila M., 1997; cited from earlier work

| SMILES | effect of food intake on bioavailability [1] | aqueous solubility [2] | tolerability ([3]; in vivo) | bioavailability ([3]; oral administration) | effect of food intake on bioavailability [4] | effect of food intake on ospemifene absorption (increase) ([4]; oral, food intake versus fasted) | effect of food intake on absorption [5] | effect of food intake on bioavailability [5] |
| --- | --- | --- | --- | --- | --- | --- | --- | --- |
| OCCOc1ccc(/C(=C(/CCCl)c2ccccc2)c2ccccc2)cc1 [ospemifene] | enhanced | low aqueous solubility | excellent tolerability | rather low | enhanced | 2-3 fold | – | – |
| OCCOc1ccc(/C(=C(/CCCl)c2ccccc2)c2ccc(O)cc2)cc1 [4-hydroxy-ospemifene, 4-hydroxyospemifene] | – | – | – | – | substantial effect | – | – | – |
| CN(C)CCOc1ccc(/C(=C(/CCCl)c2ccccc2)c2ccccc2)cc1 [toremifene] | – | low aqueous solubility | – | – | – | – | retarded the absorption | did not have any positive effect |

From patent publication US8772353B2, “Method for enhancing the bioavalability of ospemifene” (Hormos Medical Ltd., priority 2004, dated 2014)
